Measured values from patent US6046219A, “Method for the treatment of conditions mediated by collagen formation together with cell proliferation by application of inhibitors of protein hydroxylation” (Cornell Research Foundation, Inc., priority 1997, dated 2000).
Entries after “also recorded” stand apart in the source; their conditions may differ. Values belong to the compound of their own block, whether it stands above or below them.

Legend:
[1] = target: T1, purified human prolyl 4-hydroxylase (Homo sapiens, UniProt P13674); test: Assay of purified human prolyl 4-hydroxylase (14CO2 release from 2-oxoglutarate, cell-free); type: biochemical; settings: for Prolyl 4-hydroxylase ID50 (purified): purified human enzyme, inhibitory dose that gives 50% reduction of the enzyme-mediated reaction, unit assumed
T1 construct: made in house; host or cells: Spodoptera frugiperda insect cells (baculovirus, co-expression of α- and β-subunits)
T1 sequence (P13674 18-534): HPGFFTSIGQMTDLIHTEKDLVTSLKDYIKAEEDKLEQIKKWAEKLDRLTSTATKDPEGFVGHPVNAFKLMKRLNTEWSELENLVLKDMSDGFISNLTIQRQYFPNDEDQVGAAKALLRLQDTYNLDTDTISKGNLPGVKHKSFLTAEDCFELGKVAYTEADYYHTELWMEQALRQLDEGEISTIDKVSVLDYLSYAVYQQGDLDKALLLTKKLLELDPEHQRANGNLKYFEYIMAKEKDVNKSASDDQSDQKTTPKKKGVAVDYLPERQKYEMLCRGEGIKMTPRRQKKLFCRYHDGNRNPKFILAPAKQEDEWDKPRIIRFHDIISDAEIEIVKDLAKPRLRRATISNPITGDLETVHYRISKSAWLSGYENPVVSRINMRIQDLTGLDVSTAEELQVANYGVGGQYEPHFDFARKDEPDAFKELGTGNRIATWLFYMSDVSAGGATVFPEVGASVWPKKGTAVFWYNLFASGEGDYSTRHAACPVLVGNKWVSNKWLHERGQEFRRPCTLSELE
T1 sequence (P07237 18-508 partner): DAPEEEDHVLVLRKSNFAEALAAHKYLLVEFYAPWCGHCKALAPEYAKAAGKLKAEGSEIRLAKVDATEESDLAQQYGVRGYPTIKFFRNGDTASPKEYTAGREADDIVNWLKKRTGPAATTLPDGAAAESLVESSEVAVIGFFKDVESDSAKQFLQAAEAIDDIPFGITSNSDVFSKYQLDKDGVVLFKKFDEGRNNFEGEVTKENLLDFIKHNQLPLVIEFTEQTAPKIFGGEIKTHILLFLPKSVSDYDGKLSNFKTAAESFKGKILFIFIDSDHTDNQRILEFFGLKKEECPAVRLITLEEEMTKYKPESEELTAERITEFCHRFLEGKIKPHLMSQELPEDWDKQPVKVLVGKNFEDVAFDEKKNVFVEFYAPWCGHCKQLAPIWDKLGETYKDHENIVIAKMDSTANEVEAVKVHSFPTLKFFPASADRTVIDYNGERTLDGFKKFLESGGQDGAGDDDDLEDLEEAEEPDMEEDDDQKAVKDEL
Procedure: The effect on the enzyme was determined in a cell-free system by measuring the oxidative decarboxylation of its cofactor 2-oxoglutarate via release of radiolabeled carbon dioxide in a standard reaction mixture also containing ascorbate, ferrous sulfate, and unhydroxylated peptide substrate.
(§1) The inhibitory action of the substances according to the invention, for example on collagen secretion or cell proliferation, can be tested in direct assays of the enzymes mediating the pivotal protein hydroxylations for these biological processes, such as prolyl 4-hydroxylase and deoxyhypusyl hydroxylase. This entails the enzymatic hydroxylation of the appropriate protein precursor, either by the cellular or the purified enzyme, in the presence or absence of compounds of Formulae (I) or (II), with concomitant determination of co-substrate utilization by these enzymes or subsequent isolation of the hydroxylated amino acid and its unhydroxylated precursor. In this manner, the inhibitory potency of any given compound can be measured in the cell-free system, in cell culture, or in tissue, and is expressed as the inhibitory dose that gives a 50% reduction of the enzyme-mediated reaction (ID50). Enzyme is tested in analogy to the method of A. Abbruzzese, H. M. Hanauske-Abel, et al., Biochem. Biophys. Acta, 1077, 159-166 (1991) and of K. Majamaa, H. M. Hanauske-Abel, et al., Eur. J. Biochem. 138, 239-245 (1984), which are hereby incorporated by reference. Table III lists the ID50 values of some of the compounds according to the invention, using purified human prolyl 4-hydroxylase and cellular human deoxyhypusyl hydroxylase as representative protein hydroxylases.
The inhibiting effect of hydroxypyridones on the collagen-hydroxylating enzyme was studied in a cell-free system.
Assay of purified human prolyl 4-hydroxylase
The native α2 β2 -tetrameric enzyme was purified to homogeneity by poly(L-proline) affinity chromatography and DEAE chromatography from the supernatant of Spodoptera frugiperda insect cells cotransfected with recombinant baculovirus transfer vectors for both the human α- and β-subunits. Enzyme activity was determined by trapping of ^14 CO2 released from 2-oxo[1-^14 C][glutarate] according to the procedure of Majamaa, et al., Eur. J. Biochem., 138:239-245 (1984), which is hereby incorporated by reference. Briefly, all incubations were run for 60 minutes at 37° C. in a final volume of 1.0 ml per test sample, containing 0.1 μg enzyme, 0.1 mg heat-denatured (Pro-Pro-Gly)10 ×9 H2 O as hydroxylatable substrate, 0.1 mM 2-oxo[1-^14 C][glutarate] adjusted to 60,000 dpm by mixing with the unlabeled 2-oxoglutarate as cosubstrate, and cofactors (1.6 mM ascorbate, 0.05 mM ferrous sulfate, 0.08 mM dithiothreitol, 2 mg bovine serum albumin, 5 μL catalase). Assays are performed with only one of the active compounds at any given time.

[2] = target: T2, cellular human deoxyhypusyl hydroxylase (Homo sapiens, UniProt Q9BU89); test: Cellular human deoxyhypusyl hydroxylase (DOHH assay, 3H-spermidine labeling); type: cell-based; settings: for Deoxyhypusyl hydroxylase ID50 (cellular): cellular human enzyme, inhibitory dose that gives 50% reduction of the enzyme-mediated reaction, unit assumed
T2 construct: endogenous in cells; host or cells: cultured human cells (smooth muscle cells, B-lymphocytes)
T2 sequence (Q9BU89 1-302): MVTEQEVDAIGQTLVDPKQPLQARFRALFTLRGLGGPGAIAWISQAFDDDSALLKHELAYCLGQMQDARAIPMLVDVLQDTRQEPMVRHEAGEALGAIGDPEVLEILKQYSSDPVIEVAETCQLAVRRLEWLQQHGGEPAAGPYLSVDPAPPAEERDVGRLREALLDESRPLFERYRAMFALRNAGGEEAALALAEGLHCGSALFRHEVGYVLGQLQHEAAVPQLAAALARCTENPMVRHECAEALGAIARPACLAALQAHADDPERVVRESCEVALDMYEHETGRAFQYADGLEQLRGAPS
From the text: as §1
The inhibiting effect of hydroxypyridones on the eIF-5A-hydroxylating enzyme was studied in cultured human cells (i.e. smooth muscle cells, B-lymphocytes).
The cellular conversion of the precursor deoxyhypusine to the hydroxylated hypusine in cells was examined, after preincubation with the inhibitor for 60 minutes, by labeling the human cells with ^3 H-spermidine (5 μCi/ml) in 25 cm^2 flasks (1×10^6 cells/flask) for 24 hours prior to cell lysis, precipitation with 10% TCA containing 1 mM each of putrescine, spermidine, and spermine, and hydrolysis in 6 N HCl at 110° C. for 16 hours. The hydrolysate was analyzed for labeled amino acids on an amino acid analyzer by published methods (Park et al., J. Biol. Chem., 257:7217-7222 (1982), which is hereby incorporated by reference). The retention of purified hypusine and deoxyhypusine was determined from standards.

[3] = system: protein hydroxylases; test: Inhibition of protein hydroxylases; type: biochemical; settings: no data shown
[4] = system: human umbilical vein endothelial cells (HUVEC); test: Endothelial cell proliferation (tritiated thymidine incorporation); type: cell-based; settings: 24 hours
Procedure: Human umbilical vein endothelial cells ("HUVEC") were treated with the specified concentrations of deferiprone (X-axis) for 24 hours prior to evaluating tritiated thymidine (3H-Tdr) incorporation into DNA for 4 hours. The results are expressed per well and the bars at each point reflect the standard error of the mean (S.E.M., n=3). Decreasing 3H-Tdr incorporation would reflect reduced endothelial cells proliferation.
Endothelial cell proliferation was determined by essentially the same methods previously disclosed for the determination of smooth muscle proliferation. Human umbilical vein endothelial cells ("HUVEC") were isolated and subcultured in Medium 199 containing 15% fetal bovine serum ("FBS"), endothelial cell growth factor ("ECGF", 5 ng/ml), heparin (9 μg/ml), and antibiotics. The cells were plated in 96-well dishes at 1×10^4 cells per well and then allowed to attach for 24 hours. The medium was removed, and the cells were changed to media containing deferiprone at 50, 100, 200, or 500 μM. After 24 hours, tritiated thymidine was added to the wells and allowed to incorporate into the DNA for 4 hours prior to isolation of the nuclear DNA by standard methods. The results are expressed as the counts per minute ("cpm") of radioactivity per well, which is proportional to the rate of DNA synthesis during the 4 hour labelling period.

[5] = system: prolyl hydroxylase; settings: U.S. Pat. No. 4,937,266; cited from earlier work
[6] = target: T3, purified rat deoxyhypusyl hydroxylase (Rattus norvegicus, UniProt Q5PPJ4); test: DOHH assay, purified rat deoxyhypusyl hydroxylase, conversion of deoxyhypusine-containing eIF-5A precursor; type: biochemical; settings: unhydroxylated eIF-5A precursor, purified rat enzyme
T3 construct: probably testis; substrate unhydroxylated eIF-5A precursor
T3 sequence (Q5PPJ4 1-302): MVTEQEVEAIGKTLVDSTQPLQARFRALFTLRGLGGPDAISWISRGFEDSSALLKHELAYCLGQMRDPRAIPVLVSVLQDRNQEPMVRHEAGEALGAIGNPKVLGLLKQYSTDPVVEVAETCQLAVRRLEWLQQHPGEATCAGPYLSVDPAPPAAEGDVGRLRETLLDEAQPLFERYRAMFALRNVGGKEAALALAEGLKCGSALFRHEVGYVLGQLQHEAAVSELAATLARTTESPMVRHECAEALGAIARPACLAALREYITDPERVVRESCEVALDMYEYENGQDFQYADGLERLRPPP
Procedure: The inhibiting effect of a model peptidomimetic, suitable to serve as carrier for hydroxypyridone warheads, on the activity of the purified eIF-5A-hydroxylating enzyme was studied in a cell-free system.
Enzyme activity was purified and determined as described by Abbruzzese et al., J. Biol. Chem. 261:3085-9 (1986), which is hereby incorporated by reference. Briefly, the enzyme is offered labeled deoxyhypusine-containingeIF-5A precursor. Following standard incubation conditions, the conversion into hypusine residues is measured by chromatographic amino acid separation after protein hydrolysis.

[7] = system: HUVEC; test: Endothelial cell tube formation on Matrigel; type: cell-based, human; settings: 24 hours
Procedure: HUVEC form tubes when plated on Matrigel and this is a commonly used as an in vitro model of capillary formation. In the FIG. 10A, it is shown that untreated HUVEC form capillary-like tubes (ARROW) when placed on Matrigel for 24 hours.
Endothelial cell tube formation was determined by plating HUVEC on a thick Matrigel (Becton Dickinson Labware) gel at a density of 5×10^4 cells per well of 24 well dish. Deferiprone was incubated with the cells for 30 minutes in solution prior to applying the cells to the Matrigel. The cells were added to the Matrigel-coated well, and, then 4 hours and 24 hours later, the cells were observed and photographed at a reproducible location.

[8] = orally active; established characteristics; cited from earlier work
[9] = system: human SMC from fibroproliferative vascular lesions; test: Cell proliferation: DNA synthesis (3H-thymidine) in SMC; type: cell-based
Procedure: The effect of the structural hydroxypyridone analog kojic acid is shown for comparison. Serum-stimulated DNA synthesis in SMC was determined by a 4-hour pulse of ^3 H-thymidine given 20 hours after treatment with L-mimosine and kojic acid (filled symbols). Identically treated, but unlabeled cells cultured in parallel, at that time point were washed and returned to fresh culture media without inhibitor for an additional 20 hours prior to otherwise identical labeling with ^3 H-thymidine (open symbols). Data is expressed as ^3 H-thymidine incorporated per cell to compensate for the reduced cell number in the wake of inhibitor treatment.
Inhibition of DNA synthesis was examined by semiautomated methods. SMC were plated at 1×10^4 cells/well in 96-well microtiter plates at least 24 hours prior to the assay. Agents were introduced into normal serum-containing growth media for 20 hours before the cells were pulsed with ^3 H-thymidine (1 μCi/ml) for 4 hours. Cells were collected with a cell harvester and the DNA-incorporated label determined by scintillation counting (Betaplate; Wallac, Inc., Gaithersburg, Md.) (n=6 per point).

[10] = system: certain human cells; settings: Ekblom et al.; cited from earlier work

- Prolyl 4-hydroxylase ID50 (purified) [1]: 145 µM
SMILES: CCOC(=O)[C@@H](N)Cn1ccc(=O)c(O)c1 [--ethyl ester]

- Deoxyhypusyl hydroxylase ID50 (cellular) [2]: 60 µM
- Prolyl 4-hydroxylase ID50 (purified) [1]: 210 µM
SMILES: CCOCn1ccc(=O)c(O)c1C [HK-15]

SMILES: O=c1cc(CO)occ1O [kojic acid, reference compound]
- inhibition of protein hydroxylases [3]: does not inhibit protein hydroxylases
- inhibition of endothelial cell proliferation ([4]; FIG. 9): does not inhibit EC proliferation

- Deoxyhypusyl hydroxylase ID50 (cellular) [2]: 50 µM
- Prolyl 4-hydroxylase ID50 (purified) [1]: 150 µM
SMILES: C=CCn1ccc(=O)c(O)c1C [HK-16]

SMILES: CC(C)(CO)[C@@H](O)C(=O)NCCC(=O)NCCSSCCNC(=O)CCNC(=O)[C@H](O)C(C)(C)CO [pantethine]
- effect on increased prolyl hydroxylase activity in liver with hepatic fibrosis [5]: inhibited an increased prolyl hydroxylase activity

- Deoxyhypusyl hydroxylase ID50 (cellular) [2]: 50 µM
- Prolyl 4-hydroxylase ID50 (purified) [1]: 145 µM
SMILES: CCc1c(O)c(=O)ccn1CC [HK-2]

- Deoxyhypusyl hydroxylase ID50 (cellular) [2]: 58 µM
- Prolyl 4-hydroxylase ID50 (purified) [1]: 130 µM
SMILES: CCn1ccc(=O)c(O)c1C [HK-26]

- deoxyhypusine-to-hypusine conversion / inhibition of purified deoxyhypusyl hydroxylase [6]: only weakly inhibitory
- deoxyhypusine-to-hypusine conversion / inhibition of purified deoxyhypusyl hydroxylase ([6]; listed as mimetic A): suppressed
SMILES: NC(CO)C1CCC(=O)NC(CO)C(=O)N(C(Cc2ccccc2)C(=O)O)NC1=O (stereo not drawn) [Mimetic A]

- inhibition of deoxyhypusyl hydroxylase ([2]; FIG. 3, assayed in vitro): directly inhibit
- Deoxyhypusyl hydroxylase ID50 (cellular) [2]: 90 µM
- inhibition of purified human prolyl 4-hydroxylase ([1]; cell-free system, FIG. 1): directly inhibit
- Prolyl 4-hydroxylase ID50 (purified) [1]: 133 µM
SMILES: Cc1c(O)c(=O)ccn1C [HK-1, 1,2-dimethyl-3-hydroxypyrid-4-one]
- appearance / viability of treated HUVEC on Matrigel ([7]; FIG. 10B): remain healthy and viable in appearance
- formation of capillary-like tubes on Matrigel ([7]; HUVEC, FIG. 10, listed as deferiprone): blocks the formation of tubular structures; also recorded: block the formation of capillary-like structures; also recorded: blocks capillary formation; also recorded: attach and spread, but do not form capillary-like tubes
- extraction by the liver from the portal blood [8]: rapidly extracted by the liver from the portal blood
- non-specific or toxic effects ([9]; FIGS. 6, 7): did not result from non-specific or toxic effects
- reversibility of suppressive effects (collagen secretion, onset of DNA synthesis) ([9]; upon removal of compound): reversible
- inhibition of endothelial cell proliferation ([4]; FIG. 9, listed as deferiprone): blocks the proliferation; also recorded: inhibit endothelial cell proliferation

SMILES: Cc1ncc(CO)c(C=NNC(=O)c2ccncc2)c1O [pyridoxal isonicotinyl hydrazone]
- effect on proliferation of certain human cells [10]: stimulates the proliferation

- Deoxyhypusyl hydroxylase ID50 (cellular) [2]: 50 µM
- Prolyl 4-hydroxylase ID50 (purified) [1]: 155 µM
SMILES: CCCn1ccc(=O)c(O)c1C [HK-27]
